# Assay results taken from patent US20240238278A1, “Pharmaceutical Composition for Preventing or Treating Fibrosis” (Daewoong Pharmaceutical Co., Ltd., priority 2021, published 2024).
# Key:
# [1] = Pharmacokinetic model prediction of exposure in humans at various oral doses; design: species or system human; settings: model-predicted
# From the text: Therefore, the optimal pharmacokinetic model parameters that can explain the changes in concentrations at all doses observed using Excel® and WinNonlin8.1 software were estimated for the blood drug concentration obtained in the human multidose clinical trial.
# [2] = Human pharmacokinetics, single administration; format: in vivo; settings: for CL/F / Cmax / MRT / T1/2 / tmax (median) / AUC(0-inf) / AUC(0-t) / Tmax: healthy adults, empty stomach; for Tmax: read-out: tmax (median)
# Method: (§1) The formulation used in the clinical trial was prepared in the same manner as in Preparation Examples 1 and 2.
# [3] = Human pharmacokinetics, multiple administration (Day 14); format: in vivo; settings: for Accumulation ratio based on AUCτ / CL/Fss / Cmax, ss / MRT / T1/2 / Vz/Fss / tmax, ss (median) / AUCτ / AUC(0-inf): healthy adults; for Accumulation ratio based on AUCτ / CL/Fss / Cmax, ss / MRT / T1/2 / Vz/Fss / tmax, ss (median) / AUC(0-inf): Day 14; for AUCτ: Day 14, 12 hour dosing interval
# Method: as §1
# [4] = Safety/tolerance in healthy adults clinical trial; format: in vivo, human; settings: 72 healthy adults, single (100-600 mg) and multiple (25-200 mg twice a day, 14 days) administration
# Method: as §1
# [5] = single oral 100 mg, enteric coated capsules
# [6] = single oral 300 mg, enteric coated capsules
# [7] = single oral 500 mg, enteric coated tablet
# [8] = single oral 600 mg, enteric coated capsules
# [9] = human, plasma, single oral 100 mg, enteric coated capsules
# [10] = human, plasma, single oral 300 mg, enteric coated capsules
# [11] = human, plasma, single oral 500 mg, enteric coated tablet
# [12] = human, plasma, single oral 600 mg, enteric coated capsules
smiles,measurement,setting,value
O[C@H]1CCCN[C@@H]1CCCn1cnc2c(Cl)c(Cl)ccc21 [Active component],AUCtau,[1]; oral Dose 50 mg,231.6352 ng·h/mL
same,AUCtau—24 hr,[1]; oral Dose 50 mg,463.2704 ng·h/mL
same,CL/F,[1]; oral Dose 50 mg,215856.7 mL/h
same,Cmax,[1]; oral Dose 50 mg,38.271 ng/mL
same,T1/2,[1]; oral Dose 50 mg,9.753 h
same,Tmax,[1]; oral Dose 50 mg,2.803 h
same,AUCtau,[1]; oral Dose 100 mg,463.2704 ng·h/mL
same,AUCtau—24 hr,[1]; oral Dose 100 mg,926.5407 ng·h/mL
same,CL/F,[1]; oral Dose 100 mg,215856.7 mL/h
same,Cmax,[1]; oral Dose 100 mg,76.5419 ng/mL
same,T1/2,[1]; oral Dose 100 mg,9.753 h
same,Tmax,[1]; oral Dose 100 mg,2.803 h
same,AUCtau,[1]; oral Dose 150 mg,694.9055 ng·h/mL
same,AUCtau—24 hr,[1]; oral Dose 150 mg,1389.811 ng·h/mL
same,CL/F,[1]; oral Dose 150 mg,215856.7 mL/h
same,Cmax,[1]; oral Dose 150 mg,114.813 ng/mL
same,T1/2,[1]; oral Dose 150 mg,9.753 h
same,Tmax,[1]; oral Dose 150 mg,2.803 h
same,AUCtau,[1]; oral Dose 200 mg,926.5413 ng·h/mL
same,AUCtau—24 hr,[1]; oral Dose 200 mg,1853 ng·h/mL
same,CL/F,[1]; oral Dose 200 mg,215856.5 mL/h
same,Cmax,[1]; oral Dose 200 mg,153.084 ng/mL
same,T1/2,[1]; oral Dose 200 mg,9.753 h
same,Tmax,[1]; oral Dose 200 mg,2.803 h
same,CL/F,[2]; [5],156.48 L/h
same,Cmax,[2]; [5],123.96 ng/mL
same,MRT,[2]; [5],9.26 h
same,T1/2,[2]; [5],6.91 h
same,CL/F,[2]; [6],196.59 L/h
same,Cmax,[2]; [6],276.80 ng/mL
same,MRT,[2]; [6],9.75 h
same,T1/2,[2]; [6],8.33 h
same,tmax (median),[2]; [6],2.50 h
same,CL/F,[2]; [7],213.75 L/h
same,Cmax,[2]; [7],513.56 ng/mL
same,MRT,[2]; [7],9.57 h
same,T1/2,[2]; [7],7.80 h
same,tmax (median),[2]; [7],3.01 h
same,CL/F,[2]; [8],312.07 L/h
same,Cmax,[2]; [8],213.43 ng/mL
same,MRT,[2]; [8],9.79 h
same,T1/2,[2]; [8],9.90 h
same,half-life,"[2]; human, plasma, oral, single administration, across 100-600 mg doses, read-out: geometric mean half-life",6.91 to 9.9 h
same,AUC(0-inf),[2]; [9],639 ng·h/mL
same,AUC(0-t),[2]; [9],594 ng·h/mL
same,Tmax,[2]; [9],3 h
same,AUC(0-inf),[2]; [10],1530 ng·h/mL
same,AUC(0-t),[2]; [10],1480 ng·h/mL
same,AUC(0-inf),[2]; [11],2340 ng·h/mL
same,AUC(0-t),[2]; [11],2280 ng·h/mL
same,AUC(0-inf),[2]; [12],1920 ng·h/mL
same,AUC(0-t),[2]; [12],1010 ng·h/mL
same,Tmax,[2]; [12],2 h
same,relationship of plasma concentrations to dose,[2]; single administration,dose proportional relationship
same,Accumulation ratio based on AUCτ,[3]; 25 mg tablet twice a day,1.94
same,CL/Fss,[3]; 25 mg tablet twice a day,122.65 L/h
same,"Cmax, ss",[3]; 25 mg tablet twice a day,36.50 ng/mL
same,MRT,[3]; 25 mg tablet twice a day,10.53 h
same,T1/2,[3]; 25 mg tablet twice a day,7.63 h
same,Vz/Fss,[3]; 25 mg tablet twice a day,1433.79 L
same,"tmax, ss (median)",[3]; 25 mg tablet twice a day,2.00 h
same,AUCτ,[3]; 25 mg tablet twice a day,183.32 ng·h/mL
same,Accumulation ratio based on AUCτ,[3]; 50 mg tablet twice a day,2.33
same,CL/Fss,[3]; 50 mg tablet twice a day,116.53 L/h
same,"Cmax, ss",[3]; 50 mg tablet twice a day,102.61 ng/mL
same,MRT,[3]; 50 mg tablet twice a day,8.44 h
same,T1/2,[3]; 50 mg tablet twice a day,4.40 h
same,Vz/Fss,[3]; 50 mg tablet twice a day,738.97 L
same,AUCτ,[3]; 50 mg tablet twice a day,429.09 ng·h/mL
same,Accumulation ratio based on AUCτ,[3]; 100 mg tablet twice a day,1.88
same,CL/Fss,[3]; 100 mg tablet twice a day,161.97 L/h
same,"Cmax, ss",[3]; 100 mg tablet twice a day,151.27 ng/mL
same,MRT,[3]; 100 mg tablet twice a day,10.17 h
same,T1/2,[3]; 100 mg tablet twice a day,9.26 h
same,Vz/Fss,[3]; 100 mg tablet twice a day,2163.04 L
same,"tmax, ss (median)",[3]; 100 mg tablet twice a day,3.00 h
same,AUCτ,[3]; 100 mg tablet twice a day,617.40 ng·h/mL
same,Accumulation ratio based on AUCτ,[3]; 200 mg tablet twice a day,3.75
same,CL/Fss,[3]; 200 mg tablet twice a day,66.39 L/h
same,"Cmax, ss",[3]; 200 mg tablet twice a day,595.35 ng/mL
same,MRT,[3]; 200 mg tablet twice a day,12.07 h
same,T1/2,[3]; 200 mg tablet twice a day,12.35 h
same,Vz/Fss,[3]; 200 mg tablet twice a day,1182.53 L
same,AUCτ,[3]; 200 mg tablet twice a day,3012.35 ng·h/mL
same,AUC(0-inf),"[3]; human, plasma, oral, 25 mg tablet twice a day",301 ng·h/mL
same,AUC(0-inf),"[3]; human, plasma, oral, 50 mg tablet twice a day",565 ng·h/mL
same,AUC(0-inf),"[3]; human, plasma, oral, 100 mg tablet twice a day",888 ng·h/mL
same,AUC(0-inf),"[3]; human, plasma, oral, 200 mg tablet twice a day",4750 ng·h/mL
same,AUC,"[3]; human, plasma, oral, multiple administration, 14th day, across 25-200 mg, read-out: geometric mean dose interval in vivo exposure (AUCτ)",183 to 3010 ng·h/mL
same,half-life,"[3]; human, plasma, oral, multiple administration, 14th day, across 25-200 mg, read-out: geometric mean half-life",4.4 to 12.3 h
same,relationship of plasma concentrations to dose,"[3]; multiple administration, dose range of 25 mg to 200 mg",dose linear relationship
same,serious abnormal signs or side effects,[4],no serious abnormal signs or side effects
